Where “and” joins values, the source holds several entries; their conditions need not be identical. Equal entries are not always repeated. Where two headings read alike, the source gives them in different places.
How the values were obtained:
[1] = Lipophilicity: octanol-water partition coefficient, shake-flask method
Outline: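 Octanol and water mutually pre-saturated for 24 h; compound ([…] stock in aqueous phase) partitioned against equal volume n-octanol, mixed 15 min, phases separated by centrifugation.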

[2] = UV/Vis absorption spectra; assay type: physicochemical; settings: room temperature, air-saturated CH2Cl2 or CH2Cl2/MeOH (1:1), 50 μM; ε in brackets, sh = shoulder
Procedure: UV/Vis absorption spectra were recorded at RT on solutions contained in quartz cuvettes (optical pathlength 1 cm, Hellma®) with a PerkinElmer® UV/VIS/NIR spectrophotometer Lambda 950 and a PerkinElmer® detector UV/VIS/NIR Accessory 2D Detector Module.

[3] = Luminescence emission spectra and quantum yield; assay type: physicochemical; settings: room temperature; reference POPOP in hexane or rhodamine B in ethanol
Outline: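 Spectrofluorometric fluorescence/phosphorescence emission spectra of the iridium(III) complexes recorded in CH2Cl2 at room temperature. Quantum yields by the Demas–Crosby relative method on solutions at RT, from integrated emission band areas versus a reference standard of known yield, corrected for solvent refractive index.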

[4] = Emission lifetime measurement; assay type: physicochemical
Outline: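 Emission lifetimes measured by time-correlated single-photon counting (0.5 ns time resolution), excitation from a D2 lamp and a 405 nm pulsed diode laser. Estimated error 5% on lifetime.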

[5] = test system: MC3T3 osteoblast cells (non-tumor); test: Cell viability assay (MTT), dark and blue light; assay type: cell-based, Murine; settings: for Photosensitizing index (PI): MC3T3, dark vs blue light; for GI50: read-out: GI50
Outline: (§1)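 72 h continuous exposure in the dark, or 8 h dark incubation then 10 min irradiation and dark incubation up to 72 h; 0.1% (v/v) DMSO throughout. Viability read by MTT, formazan absorbance at 570 nm. At least three independent experiments in triplicate.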

[6] = test system: NIH-3T3 fibroblast cells (non-tumor); test: Cell viability assay (MTT), dark and blue light; assay type: cell-based, Murine; settings: for GI50: read-out: GI50; for Photosensitizing index (PI): NIH-3T3, dark vs blue light
Outline: as §1

T24 bladder cancer cells = test: Cell viability assay (MTT), dark and blue light; assay type: cell-based, Human; settings: for GI50: read-out: GI50; for Photosensitizing index (PI): T24, dark vs blue light
Outline: as §1

[7] = test system: non-tumor cells (NIH-3T3 and MC3T3); test: Cell viability assay (MTT), summary over the non-tumor models; assay type: cell-based, Murine; settings: for GI50: blue light 458 nm, read-out: GI50 mean over non-tumor models, irradiated; for mean PI value in NIH-3T3 and MC3T3 non-tumoral cells: dark vs blue light 458 nm
Procedure: Cells were grown in humidified incubators at 37° C. in 5% CO2. Murine MC3T3 osteoblast and NIH-3T3 fibroblast cells-used as non-tumor cell models-were cultured in a-MEM medium and DMEM medium supplemented with 10% fetal bovine serum (FBS) and 1% Penicillin/Streptomycin (P/S) antibiotics, respectively. Human T24 bladder, MGHU3 bladder, Scaber bladder, A549 lung, MCF7 breast, MiaPaCa2 pancreas cancer cells were cultured in DMEM medium supplemented with 10% FBS and 1% P/S antibiotics. […] Human Hela cervix and HepG2 liver cancer cells were cultured EMEM medium supplemented with 10% FBS and 1% P/S antibiotics.
MTT reagent (3-(4,5-dimethylthiazol-2-yl)-2,5-diphenyltetrazolium bromide) was used to determine cell death as originally described by Mosmann. Briefly, cells were seeded from 5,000 to 10,000 cells/well in 24-well plates (1 mL) depending on the cell type and allowed to attach overnight. The complexes were prepared in DMSO. The concentration of the complexes was calculated based on the elemental composition of the complexes determined by the elemental analyses. All cell viability experiments were carried out with a fixed concentration of 0.1% (v/v) DMSO. After 72 h of treatment, cells were incubated at 37° C. and 5% CO2 with 25 μL of MTT solution (5 mg/ml; Sigma-Aldrich) in 24-well plates for 3 to 4 h. After solubilization with 500 μL of DMSO, formazan was quantified spectrophotometrically with a microplate reader at 570 nm absorbance (ClarioSTAR, BMG LabTech). […] All the results were calculated from data obtained in at least three independent experiments performed in triplicate.
Two sets of experiments were conducted in parallel for each complex to be studied:
1. The cells were incubated with the different complexes (in the dark) for 72 h.
2. The cells were incubated for 8 h with the different complexes (in the dark), then irradiated for 10 min, followed by an incubation in the dark up to 72 h.

F[P-](F)(F)(F)(F)F.O=C(NCCCn1cc[n+]2[c]1[Ir-3]13([c]4ccccc4-c4c5ccccc5cc[n+]41)([c]1ccccc1-c1c4ccccc4cc[n+]13)[n+]1ccccc1-2)[c-]1cccc1.[Fe+2].c1cc[cH-]c1 [IV-h]
Log P [1]: 0.81 ± 0.07 | λmax (nm) ε (M^−1 · cm^−1) [2]: 334 (sh) (19440), 351 (sh) (18355), 380 (12745), 435 (7870) nm (M^−1 · cm^−1) | ΦP emission phosphorescence quantum yield [3]: 0.07% | τ1 emission lifetime [4]: 178 ns | Photosensitizing index (PI) [5]: 3.8 | GI50 ([5]; MC3T3, dark): 17.1 µM | GI50 ([6]; NIH-3T3, blue light): 4.4 µM | Photosensitizing index (PI) [6]: 3.0 | SI (vs MC3T3) (T24 bladder cancer cells; T24, blue light): 45.0 | SI (vs NIH-3T3) (T24 bladder cancer cells; T24, blue light): 44.0 | GI50 (T24 bladder cancer cells; T24, blue light): 0.1 µM | SI (vs NIH-3T3) (T24 bladder cancer cells; T24, dark): 10.2 | Photosensitizing index (PI) (T24 bladder cancer cells): 13.0 | GI50 (T24 bladder cancer cells; T24, dark): 1.3 µM | GI50 [7]: 4.45 µM | mean PI value in NIH-3T3 and MC3T3 non-tumoral cells [7]: 2.8 fold

F[P-](F)(F)(F)(F)F.O=C(NCCCn1cc[n+]2[c]1[Ir-3]13([c]4ccccc4-c4sc5ccccc5[n+]41)([c]1ccccc1-c1sc4ccccc4[n+]13)[n+]1ccccc1-2)[c-]1cccc1.[Fe+2].c1cc[cH-]c1 [IV-k]
Log P ([1]; n-octanol/water, shake-flask, mean of at least three determinations): 0.74 ± 0.05 | λmax (nm) ε (M^−1 · cm^−1) [2]: 321 (24910), 371 (sh) (7200), 407 (5940) nm (M^−1 · cm^−1) | ΦP emission phosphorescence quantum yield [3]: 0.08% | τ1 emission lifetime [4]: 212 ns | GI50 ([5]; MC3T3, blue light): 5.1 µM | Photosensitizing index (PI) [5]: 2.3 | GI50 ([5]; MC3T3, dark): 10.2 µM and 11.6 µM | GI50 ([6]; NIH-3T3, blue light): 11.6 µM | Photosensitizing index (PI) [6]: 1.6 | GI50 ([6]; NIH-3T3, dark): 18.7 µM | SI (vs MC3T3) (T24 bladder cancer cells; T24, blue light): 27.0 | SI (vs MC3T3) (T24 bladder cancer cells; T24, dark): 11.4 | SI (vs NIH-3T3) (T24 bladder cancer cells; T24, dark): 20.9 | Photosensitizing index (PI) (T24 bladder cancer cells): 4.7 | mean PI value in NIH-3T3 and MC3T3 non-tumoral cells [7]: 2.8 fold

F[P-](F)(F)(F)(F)F.O=C(NCCCn1cc[n+]2[c]1[Ir-3]13([c]4c(sc5ccccc45)-c4cccc[n+]41)([c]1c(sc4ccccc14)-c1cccc[n+]13)[n+]1ccccc1-2)[c-]1cccc1.[Fe+2].c1cc[cH-]c1 [IV-j]
Log P [1]: 1.07 ± 0.07 | λmax (nm) ε (M^−1 · cm^−1) [2]: 322 (15400), 342 (sh) (14040), 434 (6150) nm (M^−1 · cm^−1) | ΦP emission phosphorescence quantum yield [3]: 0.01% | τ1 emission lifetime [4]: 196 ns | GI50 ([5]; MC3T3, blue light): 3.9 µM | Photosensitizing index (PI) [5]: 4.2 | GI50 ([6]; NIH-3T3, blue light): 14 µM | Photosensitizing index (PI) [6]: 4.5 | GI50 ([6]; NIH-3T3, dark): 62.8 µM | SI (vs NIH-3T3) (T24 bladder cancer cells; T24, blue light): 108.5 | GI50 (T24 bladder cancer cells; T24, blue light): 0.13 µM | SI (vs NIH-3T3) (T24 bladder cancer cells; T24, dark): 22.7 | Photosensitizing index (PI) (T24 bladder cancer cells): 21.5 | GI50 (T24 bladder cancer cells; T24, dark): 2.8 µM | GI50 [7]: 8.4 µM | mean PI value in NIH-3T3 and MC3T3 non-tumoral cells [7]: 2.8 fold
